Test results reported in ChEMBL document CHEMBL1201862, “PubChem BioAssay data set” (2004).
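Values below derive from 48-hour exposures of cells grown in 96-well plates, with endpoints linearly interpolated between the two concentrations bracketing the appropriate inhibition level. Here, GI50 denotes the concentration required for 50% inhibition of growth.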 Activity calls are given as the source filed them. Cut-off read from the data, not from the text of the source: active = GI50 up to about 1.1 µM and inactive = higher.

Tests used:
Test in all cases: NCI anticancer screen, dose series, 48 h
SN12C = system: SN12C
OVCAR-3 = system: OVCAR-3
HCC 2998 = system: HCC 2998
OVCAR-4 = system: OVCAR-4
DMS-114 = system: DMS-114
RPMI-8226 = system: RPMI-8226
NCI-H23 = system: NCI-H23
CCRF-CEM = system: CCRF-CEM
HOP-62 = system: HOP-62
A549 = system: A549
SK-MEL-28 = system: SK-MEL-28
UACC-62 = system: UACC-62
T47D = system: T47D
ACHN = system: ACHN
NCI/ADR-RES = system: NCI/ADR-RES
NCI-H460 = system: NCI-H460
M14 = system: M14
NCI-H522 = system: NCI-H522
786-0 = system: 786-0
SW-620 = system: SW-620

Row | SMILES | GI50 (SN12C) | GI50 (OVCAR-3) | GI50 (HCC 2998) | GI50 (OVCAR-4) | GI50 (DMS-114) | GI50 (RPMI-8226) | GI50 (NCI-H23) | GI50 (CCRF-CEM) | GI50 (HOP-62) | GI50 (A549) | GI50 (SK-MEL-28) | GI50 (UACC-62) | GI50 (T47D) | GI50 (ACHN) | GI50 (NCI/ADR-RES) | GI50 (NCI-H460) | GI50 (M14) | GI50 (NCI-H522) | GI50 (786-0) | GI50 (SW-620)
1 | CNC(=O)OC1/C(C)=C\C(C)C(O)C(OC)CC(C)CC2=C(OC)C(=O)C=C(C2=O)N(C)C(=O)/C(C)=C/C=C\C1OC (stereo not given) | 3.62 µM (inactive) | 3.8 µM (inactive) | 4.39 µM (inactive) | 9.23 µM (inactive) | 4.99 µM (inactive) | 1.67 µM (inactive) | 4.86 µM (inactive) | 0.938 µM (active) | 14.4 µM (inactive) | 14.3 µM (inactive) | 2.88 µM (inactive) | 3.84 µM (inactive) | 1.57 µM (inactive) | 8.24 µM (inactive) | 20 µM (inactive) | 11.1 µM (inactive) | 3.08 µM (inactive) | 0.879 µM (active) | 4.31 µM (inactive) | 0.35 µM (active)
2 | Cc1cc(N(CCOS(C)(=O)=O)CCOS(C)(=O)=O)ccc1/C=N/c1ccc(-c2nc(Cc3ccccc3)sc2C)cc1 | 5.4 µM (inactive) | 2.87 µM (inactive) | 3.77 µM (inactive) | 15.5 µM (inactive) | 7.91 µM (inactive) | 3.82 µM (inactive) | 2.91 µM (inactive) | 0.471 µM (active) | 1.75 µM (inactive) | 1.33 µM (inactive) | 14.2 µM (inactive) | 1.47 µM (inactive) | 2.03 µM (inactive) | 0.404 µM (active) | 10.6 µM (inactive) | 0.0281 µM (active) | 4.86 µM (inactive) | 0.233 µM (active) | 1.28 µM (inactive) | 8.57 µM (inactive)
3 | N#CC(C(=O)/C(=N/Nc1nc(S)nn1N)C(C#N)c1ccccc1)c1ccccc1 (stereo not given) | > 100 µM (inactive) | > 100 µM (inactive) | > 100 µM (inactive) | > 100 µM (inactive) | > 100 µM (inactive) | > 100 µM (inactive) | > 100 µM (inactive) | > 100 µM (inactive) | > 100 µM (inactive) | > 100 µM (inactive) | > 100 µM (inactive) | > 100 µM (inactive) | > 100 µM (inactive) | > 100 µM (inactive) | > 100 µM (inactive) | > 100 µM (inactive) | > 100 µM (inactive) | > 100 µM (inactive) | > 100 µM (inactive) | > 100 µM (inactive)
